Among the data in PubChem BioAssay (NCI) are TGI and GI50 values, retold here.

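Five compound concentrations were applied to cells in 96-well plates for 48 hours; endpoints were derived by simple linear interpolation of the resulting dose-response curve. GI50: concentration for 50% inhibition of growth. The concentration for full growth arrest is given as TGI.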

Common to all, as to test: NCI anticancer screen, dose series, 48 h
Assay [1] deals with SNB-19 CNS.
The test system of assay [2] is LOX IMVI melanoma.
For assay [3], the system named is MALME-3M melanoma.
The subject of assay [4] is TK-10 renal.
In assay [5] the test system is CCRF-CEM leukemia.
For assay [6], the system named is NCI-H460 lung.
Assay [7] concerns SK-OV-3 ovarian.
Assay [8] deals with HT29 colon.
Assay [9] has as its system NCI-H522 lung.
The subject of assay [10] is SF-268 CNS.

As for `CC1OC(n2cc(F)c(=O)[nH]c2=O)CCC1O` (centres undefined), the TGI in assay [1], in [2], in assay [3], in assay [4], in [5] and in assay [6] was above 100 µM throughout. Besides, the TGI in assay [7], in assay [8], in [9] and in assay [10] was above 100 µM throughout.
As to `CC1(Cl)C(=O)NC(=O)N(C2CC(N=[N+]=[N-])C(CO)O2)C1N=[N+]=[N-]` (centres undefined), the TGI in assay [1], in assay [2], in [3], in assay [4], in assay [5] and in [6] was above 100 µM each time. Also, the TGI in assay [7], in assay [8], in [9] and in [10] was above 100 µM throughout.
In the case of `N#C/C(=C1C=C/C(=N/O)C(Br)=C/1)c1ccccc1`, the GI50 in assay [1] was 8.7 µM; in assay [2], 0.521 µM; in assay [3], 4.72 µM; in assay [4] it was 5.02 µM; in assay [5], 0.661 µM; in assay [6] it was 2.89 µM. In addition, the GI50 in [7] is 4.43 µM; in assay [8] it was 3.3 µM; in assay [9], 1.87 µM; in [10] it was 2.18 µM. The TGI is above 100 µM in [1]; 2.9 µM in assay [2]; 22.6 µM in assay [3]; 16.5 µM in [4]; 8.91 µM in assay [5]; 8.8 µM in [6]. Besides, the TGI in assay [7] was 71.6 µM; in assay [8], 10.2 µM; in assay [9], 5.23 µM; in assay [10], 11.7 µM.
As to `CC(=O)Nc1ccccc1Sc1ccccc1`, the TGI in assay [1], in assay [2], in assay [3], in assay [4], in [5] and in [6] was above 100 µM in each case. Further, the TGI in assay [7], in assay [8], in assay [9] and in assay [10] was above 100 µM in each case.
Take `Cc1cc2c(cc1C)[n+](=O)c(C(=O)CC(=O)C(=O)Nc1c(C(C)C)cccc1C(C)C)c(C)n2[O-]`: the TGI in assay [1], in assay [2], in assay [3], in assay [4], in assay [5] and in [6] was above 100 µM in each case. For the same compound, the TGI in assay [7], in [8], in assay [9] and in assay [10] was above 100 µM in each case.
As for `Cn1c(N2NC(=O)C(N=Nc3ccc(S(N)(=O)=O)cc3)C2=O)nc(-c2ccco2)c(C#N)c1=O` (centres undefined), the GI50 in assay [1] was above 50 µM; in assay [2], 8.08 µM; in assay [3] it was 0.0614 µM; in assay [4], 8.64 µM; in [5] it was 8.63 µM; in assay [6], above 50 µM. The GI50 in assay [7] is above 50 µM; in [8], 33.4 µM; in assay [9] it was 5.42 µM; in [10] it was 15.6 µM. For the same compound, the TGI in assay [1] is above 50 µM; in assay [2], 18.7 µM; in assay [3], 7.62 µM; in [4], 33.5 µM; in assay [5], above 50 µM; in [6], above 50 µM. Also, the TGI was above 50 µM in [7], above 50 µM in [8], 26.5 µM in assay [9] and above 50 µM in assay [10].
Regarding `CCOC(=O)CCc1cc(=O)oc2cc(O)cc(O)c12`, the TGI in assay [1], in assay [2], in assay [3], in [4], in assay [5] and in assay [6] was above 100 µM throughout. The TGI in assay [7], in [8], in [9] and in [10] was above 100 µM throughout.
As for `CC[CH2][Pb]([CH2]CC)([CH2]CC)[O]C(=O)C(F)(F)F`, the GI50 is 0.206 µM in assay [1]; 0.0891 µM in assay [2]; 0.0894 µM in [3]; 0.204 µM in [4]; 0.0906 µM in assay [5]; 0.113 µM in [6]. The GI50 in assay [7] was 0.275 µM; in assay [8], 0.186 µM; in [9] it was 0.181 µM; in assay [10], 0.156 µM. Also, the TGI was found to be 0.81 µM in assay [1]; 0.255 µM in [2]; 0.348 µM in assay [3]; 0.533 µM in [4]; 0.775 µM in assay [5]; 0.398 µM in assay [6]. Further, the TGI in assay [7] was determined as 1.09 µM; in assay [8], 0.47 µM; in [9], 0.348 µM; in assay [10], 0.43 µM.
For `N#C/C(=C/c1ccsc1)C(=O)c1ccccc1`, the TGI in assay [1], in [2], in [3], in [4], in [5] and in assay [6] was above 100 µM each time. For the same compound, the TGI in [7], in assay [8], in [9] and in assay [10] was above 100 µM throughout.
For the compound `CN(C)CCC(=O)N1C/C(=C/c2ccccc2)C(=O)/C(=C\c2ccccc2)C1`, the TGI in [1] was found to be 7.62 µM; in assay [2], 1.27 µM; in [3], 5.9 µM; in assay [4], 17.9 µM; in [5], 0.874 µM; in [6], 6.47 µM. The TGI in [7] turned out to be 15.2 µM; in assay [8], 2.69 µM; in assay [9], 0.977 µM; in [10] it was 9.22 µM.
Regarding `O=C1OCc2c1cc1ccc(O)c(OC3OC(CO)C(O)C(O)C3O)c1c2-c1ccc2c(c1)OCO2` (centres undefined), the GI50 was 36 µM in [1], 34.9 µM in assay [5], 22.6 µM in assay [9] and 57.1 µM in assay [10]. Also, the TGI in [1], in [2], in assay [3], in [4], in assay [5] and in assay [6] was above 100 µM each time. Moreover, the TGI in [7] was above 100 µM; in assay [8], above 100 µM; in assay [9] it was 59.9 µM; in [10] it was above 100 µM.
With `C=C(CN1CCc2ccccc2C1)c1ccc(C(=O)Nc2cnccn2)cc1`, the GI50 in [1] was 51.1 µM; in assay [2], 9.18 µM; in [4], 86.3 µM; in [5], 5.42 µM; in assay [6] it was 36.3 µM; in assay [7], 24.3 µM. Besides, the GI50 was 24.1 µM in assay [8], 18.2 µM in [9] and 60.4 µM in assay [10]. Moreover, the TGI is above 100 µM in [1]; above 100 µM in [2]; above 100 µM in assay [4]; above 100 µM in assay [5]; above 100 µM in assay [6]; 84.5 µM in [7]. Further, the TGI in assay [8] is 59.5 µM; in assay [9] it was 42.5 µM; in [10], above 100 µM.
`C[C@]12CC[C@H](O)CC1=CC[C@@H]1[C@@H]2CC[C@]2(C)C(c3cccnc3)=CC[C@@H]12`: the GI50 in assay [1] is 26.8 µM; in assay [2], above 100 µM; in [3] it was 54.3 µM; in assay [4], above 100 µM; in [5], above 96.6 µM; in [6], above 100 µM. Also, the GI50 was above 33.8 µM in assay [7], 56.2 µM in assay [8], 10.1 µM in [9] and 15.7 µM in assay [10]. In addition, the TGI in assay [1], in assay [2], in assay [3], in [4], in assay [5] and in assay [6] was above 100 µM each time. The TGI in [7], in assay [8], in assay [9] and in assay [10] was above 100 µM throughout.
For the compound `O=C(NCCOCCOCCNc1cccc2c1C(=O)N(C1CCCNC1=O)C2=O)c1cc2c(o1)C(=O)c1ccccc1C2=O` (centres undefined), the GI50 was 2.42 µM in assay [1]; 1.17 µM in assay [2]; 0.176 µM in assay [3]; 3.39 µM in [4]; 4.48 µM in assay [5]; 1.85 µM in assay [6]. In addition, the GI50 was 2.87 µM in [7], 2.93 µM in [8], 2 µM in assay [9] and 2.39 µM in [10]. For the same compound, the TGI in assay [1] was 9.84 µM; in [2], 3 µM; in assay [3] it was 0.401 µM; in [4], 7.14 µM; in assay [5], above 100 µM; in assay [6], 3.59 µM. Further, the TGI in assay [7] stood at 7.93 µM; in [8], 8.05 µM; in assay [9], 4.77 µM; in [10] it was 6.35 µM.
In the case of `COC(=O)C1=C(C(=O)OC)C2C=CC1C1C(Cl)=C(Cl)C21` (centres undefined), the TGI in [2], in assay [3], in assay [4], in assay [5], in [6] and in assay [7] was above 100 µM each time. The TGI in assay [8], in assay [9] and in [10] was above 100 µM throughout.
`CCCCN(CCCC)C(=O)C(=O)C(C#N)c1ccc(C)cc1` (centres undefined): the TGI in assay [1], in [2], in assay [3], in assay [4], in [5] and in assay [6] was above 100 µM throughout. Moreover, the TGI in assay [8], in assay [9] and in [10] was above 100 µM throughout.
For the compound `N#CC1(Cc2ccc(N)cc2)c2ccccc2C=CN1C(=O)c1ccccc1` (centres undefined), the TGI in [1], in assay [2], in assay [3], in [4], in [5] and in assay [7] was above 100 µM throughout. The TGI in assay [8], in assay [9] and in assay [10] was above 100 µM in each case.
With `Cc1nc2c(nc1Cl)nc(Oc1ccc(Cl)cc1)c1ccccc12`, the TGI in assay [1], in assay [2], in [3], in assay [5], in [6] and in [7] was above 100 µM in each case. Besides, the TGI in assay [8], in assay [9] and in [10] was above 100 µM each time.
Consider `CN1CCN(Cc2ccc(NC(=O)c3cncc(C#Cc4cnc(N)c5ccc(C#N)cc45)c3)cc2C(F)(F)F)CC1`, for which the GI50 in assay [2] is 0.0203 µM; in assay [3] it was 0.0134 µM; in [4], 0.21 µM; in [5], 0.0803 µM; in assay [6] it was 0.0976 µM; in assay [7], 0.0212 µM. Moreover, the GI50 is 0.0211 µM in assay [8], 0.088 µM in assay [9] and 0.0497 µM in [10]. Also, the TGI was 0.546 µM in [2]; 0.0943 µM in [3]; 1.47 µM in assay [4]; 2.05 µM in assay [5]; 1.1 µM in assay [6]; 0.599 µM in assay [7]. In addition, the results for the TGI in assay [8], in assay [9] and in assay [10] were 0.838 µM, 1.69 µM and 0.859 µM, respectively.
As for `O=C(O)Cn1ccc(=O)c2ccc([N+](=O)[O-])cc21`, the TGI in [1], in assay [3], in [4], in [5], in [6] and in [7] was above 100 µM throughout. The TGI in [8], in [9] and in assay [10] was above 100 µM in each case.
With `COc1ccc2ccc3c(c2c1)CN1CCc2cc(OC)c(OC)cc2C1C3` (centres undefined), the TGI in assay [1], in assay [2], in assay [3], in [4], in [5] and in assay [6] was above 100 µM each time. Also, the TGI in [7], in assay [8] and in assay [9] was above 100 µM each time.
